What was measured:
[1] = tested on: liver of WT, PWS and PWS-KO mice; assay: Liver histology (H&E); format: in vivo, mouse
Protocol: Tissues were isolated immediately following euthanasia by CO2 asphyxiation and placed into 4% paraformaldehyde, overnight, with rocking at 4° C. The tissues were then rinsed in 70% ethanol and stored in 70% ethanol at 4° C. until processing. The Virginia Tech Veterinary Teaching Hospital at the Virginia-Maryland College of Veterinary Medicine processed the tissues for histology and stained with hematoxylin-eosin stain for microscopy. Representative samples were visualized using a 40× ocular on a Nikon Eclipse 50i micro-scope and captured using an Olympus Q-color3 camera.

[2] = tested on: WT, PWS (Snord116m+/p−) and PWS-KO (Snord116m−/p−) mice; assay: Spontaneous wheel running; format: in vivo, mouse; settings: post-study
Protocol: For the spontaneous/motivated wheel running analysis, mice were placed in wire-bottom cages equipped with computer-monitored running wheels (Mini-mitter, Sunriver, OR, USA) for a total of 4 days, and then returned to their home cages. The first two days were not recorded as these were considered acclimation days, and the last 48 h were used for data collection. Mice had ad lib access to food and water during this time. For the pre-week, regular mouse chow was provided. For the post-week measurements, mice were supplied with their study diet during testing.

Substance: conjugated linoleic acid [CLA]
- Mice with liver steatosis on CLA diet, PWS and PWS-KO ([1]; PWS and PWS-KO): ~50%
- Liver steatosis, PWS-KO mice on CLA diet ([1]; PWS-KO): four of seven
- Liver steatosis, PWS mice on CLA diet ([1]; PWS, two of these mild): five of eight
- Liver steatosis, WT mice on CLA diet ([1]; WT): all liver sections
- Mice with liver steatosis on CLA diet, WT ([1]; WT): 100%
- 24 h spontaneous wheel running [2]: non-significant

Reference: patent publication US20240238237A1, “CONJUGATED LINOLEIC ACID SUPPLEMENTATION FOR DISEASE TREATMENT” (VIRGINIA TECH INTELLECTUAL PROPERTIES, INC., priority 2021, published 2024)
